Experiment [1] concerns NCI-N87 (Gastric Carcinoma). Kind of experiment: Bliss excess, mean over the matrix (fraction); higher = more synergy. The gist of the method:
(§1)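 Bliss excess equals the observed combination effect minus the expected value EA + EB − EA·EB, where EA and EB are the effects of each agent alone. Combination Emax is the second-highest inhibition within the matrix. Inhibition was scaled from CellTiter-Glo 2.0 luminescence, with 0 set by vehicle wells and 1 by blank wells, after 72 hours of two-drug dosing of cells plated in 1536-well plates.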

Another experiment concerns EW-3 (Ewing's Sarcoma). Described as above. The gist of the method:
as §1

The test system of experiment [2] is SCC-3 (B-Cell Non-Hodgkin's Lymphoma). Described as above. The gist of the method:
as §1

The test system of another experiment is GOTO (Neuroblastoma). The description is as above. The gist of the method: as §1
For the next experiment, the system named is U-87-MG (Glioblastoma). The experiment is described as above. The gist of the method:
as §1

The test system of experiment [3] is SNU-C1 (Colorectal Carcinoma). Described as above. The gist of the method: as §1
The test system of experiment [4] is KP-2 (Pancreatic Carcinoma). The description is as above. The gist of the method:
as §1

Experiment [5] deals with HC-1 (Other Blood Carcinomas). The experiment is described as above. The gist of the method:
as §1

Experiment [6] relates to NCI-H322M (Lung Adenocarcinoma). The description is as above. In outline:
as §1

In experiment [7] the test system is KYSE-50 (Esophageal Squamous Cell Carcinoma). Described as above. In outline:
as §1

A further experiment deals with EW-18 (Ewing's Sarcoma). Described as above. In outline: as §1
The subject of experiment [8] is MFE-319 (Endometrial Carcinoma). Described as above. The gist of the method:
as §1

For experiment [9], the system named is H-EMC-SS (Chondrosarcoma). The description is as above. The gist of the method: as §1
Experiment [10] deals with HSC-2 (Oral Cavity Carcinoma). Kind of experiment: combination Emax (second highest fraction inhibited in the dose matrix, 72 h); higher = more inhibition; extreme values may be limits of the assay. In outline: as §1
Experiment [11] concerns OCUM-1 (Gastric Carcinoma). Described as above. In outline: as §1
The test system of a further experiment is IMR-5 (Neuroblastoma). Described as above. In outline:
as §1

The subject of a further experiment is EW-13 (Ewing's Sarcoma). The description is as above. In outline: as §1
For experiment [12], the system named is BV-173 (Chronic Myelogenous Leukemia). Described as above. The gist of the method:
as §1

Experiment [13] has as its system DG-75 (Burkitt's Lymphoma). The experiment is described as above. In outline:
as §1

In experiment [14] the test system is LC4-1 (B-Lymphoblastic Leukemia). Described as above. In outline:
as §1

Experimental findings from the supplement of paper PMC11061612 are described below.

Turning to `NC1(C(=O)N[C@@H](CCO)c2ccc(Cl)cc2)CCN(c2ncnc3[nH]ccc23)CC1` [Capivasertib] + C[C@@H]1COCCN1C2=NC(=NC(=C2)C3(CC3)[S@](=N)(=O)C)C4=C5C=CNC5=NC=C4 [AZD6738] (first compound max 10 µM, 7x7, partner max 10 µM), the Bliss excess in experiment [1] was -0.0567; in the experiment on EW-3 (Ewing's Sarcoma), -0.0457; in experiment [2], -0.0037; in the experiment on GOTO (Neuroblastoma), -0.0379; with U-87-MG (Glioblastoma), 0.0169; in experiment [3], -0.0534. Also, the Bliss excess is -0.0279 in experiment [4]; -0.0166 in [5]; -0.0797 in experiment [6]; -0.0673 in experiment [7]; -0.0504 in the experiment with EW-18 (Ewing's Sarcoma); -0.122 in experiment [8]. The Bliss excess in [9] is -0.0022. The “combination Emax” value in experiment [10] amounted to 0.701; in experiment [11] it was 0.774; in the experiment on IMR-5 (Neuroblastoma), 0.99; in the experiment on EW-13 (Ewing's Sarcoma), 0.67; in experiment [12], 0.956; in [13], 0.845. Besides, in experiment [14], the “combination Emax” value stood at 0.949.
For `Cn1cnc2c(F)c(Nc3ccc(Br)cc3Cl)c(C(=O)NOCCO)cc21` [Selumetinib] + C=CCn1c(=O)c2cnc(Nc3ccc(N4CCN(C)CC4)cc3)nc2n1-c1cccc(C(C)(C)O)n1 [AZD1775] (first compound max 10 µM, partner max 1 µM), the Bliss excess was 0.023 in experiment [1]; -0.0564 in the experiment with EW-3 (Ewing's Sarcoma); 0.0092 in [2]; -0.0119 in the experiment on GOTO (Neuroblastoma); -0.0685 with U-87-MG (Glioblastoma); 0.016 in [3]. Moreover, the Bliss excess in [4] was 0.0088; in [5], -0.0702; in experiment [6], -0.0097; in experiment [7] it was -0.0209; in the experiment with EW-18 (Ewing's Sarcoma), -0.147; in [8], -0.0715. The Bliss excess in experiment [9] was -0.07. The “combination Emax” value in experiment [10] came to 0.372; in experiment [11], 0.944; in the experiment with IMR-5 (Neuroblastoma), 0.894; in the experiment on EW-13 (Ewing's Sarcoma), 0.0949; in experiment [12], 0.925; in experiment [13] it was 0.634. Besides, the “combination Emax” value in [14] was determined as 0.874.
In the case of `COc1nnc2ccc(N3CCC(c4ccc(OCCN5CCN(C)C(=O)[C@H]5C)cc4)CC3)nn12` [AZD5153] + Cn1cnc2c(F)c(Nc3ccc(Br)cc3Cl)c(C(=O)NOCCO)cc21 [Selumetinib] (first compound max 1 µM, 7x7, partner max 10 µM), the Bliss excess was -0.0399 in experiment [1]; -0.0625 in the experiment with EW-3 (Ewing's Sarcoma); -0.053 in [2]; -0.0522 in the experiment on GOTO (Neuroblastoma); -0.0591 in the experiment on U-87-MG (Glioblastoma); -0.0447 in experiment [3]. The Bliss excess in [4] was -0.0001; in [5], -0.105; in experiment [6], 0.0052; in experiment [7], 0.0571; with EW-18 (Ewing's Sarcoma), -0.0364; in experiment [8], -0.0265. The Bliss excess in experiment [9] amounted to 0.0176. Further, the “combination Emax” value is 0.737 in experiment [10]; 0.909 in experiment [11]; 0.906 in the experiment on IMR-5 (Neuroblastoma); 0.315 in the experiment with EW-13 (Ewing's Sarcoma); 0.936 in experiment [12]; 0.862 in experiment [13]. In [14], the “combination Emax” value is 0.975.
For `COc1cccc(OCCCN)c1-c1cc(Nc2cnc(C#N)cn2)n[nH]1` [Prexasertib] + CCc1c2c(nc3ccc(O)cc13)-c1cc3c(c(=O)n1C2)COC(=O)[C@]3(O)CC [SN-38] (first compound max 1 µM, 7x7, partner max 0.3 µM), the Bliss excess is -0.0787 in experiment [1]; -0.0732 with EW-3 (Ewing's Sarcoma); 0.0056 in experiment [2]; -0.058 in the experiment with GOTO (Neuroblastoma); -0.092 in the experiment on U-87-MG (Glioblastoma); -0.0179 in experiment [3]. In addition, the Bliss excess in [4] is 0.0983; in experiment [5] it was -0.0005; in experiment [6] it was -0.0161; in experiment [7], 0.0461; with EW-18 (Ewing's Sarcoma), -0.0728; in [8] it was 0.0161. In experiment [9], the Bliss excess was -0.0116. The “combination Emax” value in [10] is 0.95; in experiment [11], 0.787; in the experiment with IMR-5 (Neuroblastoma) it was 1; with EW-13 (Ewing's Sarcoma), 0.84; in experiment [12], 0.967; in experiment [13], 0.957. Moreover, in experiment [14], the “combination Emax” value was 0.966.
`COc1nnc2ccc(N3CCC(c4ccc(OCCN5CCN(C)C(=O)[C@H]5C)cc4)CC3)nn12` [AZD5153] + CCN(CCO)CCCOc1ccc2c(Nc3cc(CC(=O)Nc4cccc(F)c4)[nH]n3)ncnc2c1 [AZD2811] (first compound max 1 µM, 7x7, partner max 1 µM): the Bliss excess in [1] was -0.0589; in the experiment on EW-3 (Ewing's Sarcoma), -0.115; in experiment [2] it was 0.0474; with GOTO (Neuroblastoma), -0.0561; with U-87-MG (Glioblastoma), 0.0005; in experiment [3] it was -0.0694. In addition, the Bliss excess in experiment [4] was -0.0065; in experiment [5], -0.0099; in [6], -0.0612; in experiment [7], -0.0309; with EW-18 (Ewing's Sarcoma) it was -0.0273; in [8], -0.085. Moreover, the Bliss excess in experiment [9] is -0.0226. Moreover, the “combination Emax” value in [10] was determined as 0.662; in experiment [11], 0.581; in the experiment on IMR-5 (Neuroblastoma) it was 1; with EW-13 (Ewing's Sarcoma) it was 0.362; in experiment [12], 0.936; in experiment [13] it was 0.892. In addition, the “combination Emax” value in experiment [14] was 0.963.
`CC(=O)c1c(C)c2cnc(Nc3ccc(N4CCNCC4)cn3)nc2n(C2CCCC2)c1=O` [Palbociclib] + CC1(C)CCC(CN2CCN(c3ccc(C(=O)NS(=O)(=O)c4ccc(NCC5CCOCC5)c([N+](=O)[O-])c4)c(Oc4cnc5[nH]ccc5c4)c3)CC2)=C(c2ccc(Cl)cc2)C1 [Venetoclax] (first compound max 10 µM, 7x7, partner max 1 µM): the Bliss excess in [1] is -0.0275; in the experiment on EW-3 (Ewing's Sarcoma), 0.0792; in [2] it was 0.0411; in the experiment on GOTO (Neuroblastoma), -0.0317; in the experiment on U-87-MG (Glioblastoma) it was -0.054; in experiment [3], -0.093. The Bliss excess in experiment [4] is -0.0425; in experiment [5] it was 0.0552; in [6], -0.0288; in [7], 0.0238; in the experiment on EW-18 (Ewing's Sarcoma) it was 0.0221; in experiment [8], -0.0586. Also, the Bliss excess in [9] came to 0.0118. Moreover, the “combination Emax” value in experiment [10] turned out to be 0.245; in [11] it was 0; in the experiment on IMR-5 (Neuroblastoma), 0.7; in the experiment with EW-13 (Ewing's Sarcoma), 0.0985; in experiment [12], 0.848; in experiment [13] it was 0.705. Further, the “combination Emax” value in experiment [14] is 1.
